This is an account of results in patent publication US10975068B2, “6-aminopyridin-3-yl thiazoles as modulators of RORγT” (Janssen Pharmaceutica NV, priority 2016, dated 2021).

Read-outs that look alike come from different tables or passages of the source.

What is called IC50 is the midpoint of a concentration-inhibition curve. One may read the Kd as the equilibrium constant for the complex coming apart. Usually inhibition stands for the drop in the measured response relative to a control, in per cent.

One assay concerns the target full-length human RORγt (Homo sapiens (Human), UniProt P51449). Description: RORγt (full-length human) reporter assay, Conditions B or C. It counts as cell-based. The following applies: for RORγt (FL) Reporter Assay B or C, % inhibition (value marked *): marked *: footnote not given; for inhibition at 3 µM: at 3 μM compound concentration, read-out: RORγt (FL) Reporter Assay B or C, % inhibition. The source says: RORγt (Full-Length Human) Reporter Assay:
Cells used in this assay were transiently co-transfected with three different plasmids, one expressing the GAL4-DNA binding domain (DBD)-RORγt fusion protein under control of a CMV promoter (NH2-Gal4-DBD:RORC-COOH in pCMV-BD, Stratagene #211342), and two reporter plasmids—the firefly luciferase reporter under control of a GAL4 promoter (pFR-Luc 2×GAL4) and Renilla luciferase reporter under control of CMV promoter (pRL-CMV, Promega # E2261). The full-length coding sequence was used for human RORγt, i.e., nucleotides 142-1635 of human RORγt, transcript variant 2, NCBI Accession: NM_001001523.1 (SEQ ID NO:1). HEK293T cells were plated at 35,000 per well in 96-well plate in medium of DMEM with 10% FBS. After 18-22 hours incubation, the transfection was carried out by using a PEI solution with 170.5 ng total DNA/well (50 ng pCMV-BD-ROR plus 20 ng of pFR-Luc reporter and 0.5 ng of pRL-CMV reporter plus 100 ng Carrier DNA (Clontech #630440) for each well). 4-6 hours after transfection, cells were treated with compounds for overnight in the medium with final concentration of FBS 1.3% and DMSO 0.1%. After overnight (16 to 20 hours) incubation, media were removed and cells were lysed with 50 μL Glo Lysis Buffer (Promega) for 10-15 minutes followed by 10 minute incubation with 50 μL Dual Glo reagent (Promega) at room temperature. Firefly luciferase luminescence was measured using a BMG Pherastar plate reader. To each well, 50 μL Stop and Glo reagent was added and incubated for 10 minutes at room temperature. Renilla luminescence was measured using a BMG Pherastar plate reader. To calculate the effect of compounds on RORγt activity, firefly values were normalized against values of DMSO only and values of reference compound at saturating concentration, then further normalized against Renilla signals. IC50s were generated by plotting final Renilla normalized data against compound concentration and percent inhibition was calculated against DMSO control.
Cells used in this assay were transiently co-transfected with three different plasmids, one expressing the GAL4-DNA binding domain (DBD)-RORγt fusion protein under control of a CMV promoter (NH2-Gal4-DBD:RORC-COOH in pCMV-BD, Stratagene #211342), and two reporter plasmids—the firefly luciferase reporter under control of a GAL4 promoter (pFR-Luc 2×GAL4) and Renilla luciferase reporter under control of CMV promoter (pRL-CMV, Promega # E2261). The full-length coding sequence was used for human RORγt, i.e., nucleotides 142-1635 of human RORγt, transcript variant 2, NCBI Accession: NM_001001523.1 (SEQ ID NO:1). HEK293T cells were plated at 8750 cells per well in 384-well plate in medium of DMEM with 10% FBS. After 18-22 hours incubation, the transfection was carried out by using a PEI solution with 42.6 ng total DNA/well (12.5 ng pCMV-BD-ROR plus 5 ng of pFR-Luc reporter and 0.125 ng of pRL-CMV reporter plus 25 ng Carrier DNA (Clontech #630440) for each well). 4-6 hours after transfection, cells were treated with compounds for overnight in the medium with final concentration of FBS 1.3% and DMSO 0.1%. After overnight (16 to 20 hours) incubation, media were removed and cells were lysed with 20 μL Glo Lysis Buffer (Promega) for 10-15 minutes followed by 10 minute incubation with 20 μL Dual Glo reagent (Promega) at room temperature. Firefly luciferase luminescence was measured using a BMG Pherastar plate reader. To each well, 20 μL Stop and Glo reagent was added and incubated for 10 minutes at room temperature. Renilla luminescence was measured using a BMG Pherastar plate reader. To calculate the effect of compounds on RORγt activity, firefly values were normalized against values of DMSO only and values of reference compound at saturating concentration, then further normalized against Renilla signals.

Assay [1] deals with human RORγt ligand binding domain (RORγt LBD) (Homo sapiens (Human), UniProt P51449). Description: RORγt ThermoFluor® assay (thermal shift binding). An excerpt:
ThermoFluor® is a fluorescence based assay that estimates ligand binding affinities by measuring the effect of a ligand on protein thermal stability (Pantoliano, M. W., Petrella, E. C., Kwasnoski, J. D., Lobanov, V. S., Myslik, J., Graf, E., Carver, T., Asel, E., Springer, B. A., Lane, P., and Salemme, F. R. (2001) High-density miniaturized thermal shift assays as a general strategy for drug discovery. J Biomol Screen 6, 429-40, and Matulis, D., Kranz, J. K., Salemme, F. R., and Todd, M. J. (2005) Thermodynamic stability of carbonic anhydrase: measurements of binding affinity and stoichiometry using ThermoFluor. Biochemistry 44, 5258-66). This approach is applicable to a wide variety of systems, and rigorous in theoretical interpretation through quantitation of equilibrium binding constants (KD).
The shift in the melting point described as a ΔTm is proportional to the concentration and affinity of the ligand. The compound potency may be compared as a rank order of either ΔTm values at a single compound concentration or in terms of KD values, estimated from concentration response curves.
RORγt ThermoFluor® Assay Construct
For the RORγt construct used in the ThermoFluor® assay, numbering for the nucleotide sequences was based on the reference sequence for human RORγt, transcript variant 2, NCBI Accession: NM_001001523.1 (SEQ ID NO:1). Nucleotides 850-1635 (SEQ ID NO:2) coding for the wild type human RORγt ligand binding domain (RORγt LBD) were cloned into the pHIS1 vector, a modified pET E. coli expression vector (Accelagen, San Diego), containing an in-frame N-terminal His-tag and a TurboTEV protease cleavage site (ENLYFQG, SEQ ID NO:3) upstream of the cloned insert sequence. The amino acid sequence for the RORγt construct used in the Thermofluor® assay is shown as SEQ ID NO:4.
ThermoFluor® experiments were carried out using instruments owned by Janssen Research and Discovery, L.L.C. through its acquisition of 3-Dimensional Pharmaceuticals, Inc. 1,8-ANS (Invitrogen) was used as a fluorescent dye. Protein and compound solutions are dispensed into black 384-well polypropylene PCR microplates (Abgene) and overlayed with silicone oil (1 μL, Fluka, type DC 200) to prevent evaporation.
Bar-coded assay plates are robotically loaded onto a thermostatically controlled PCR-type thermal block and then heated at a typical ramp-rate of 1° C./min for all experiments. Fluorescence was measured by continuous illumination with UV light (Hamamatsu LC6) supplied via fiber optic and filtered through a band-pass filter (380-400 nm; >6 OD cutoff). Fluorescence emission of the entire 384-well plate was detected by measuring light intensity using a CCD camera (Sensys, Roper Scientific) filtered to detect 500±25 nm, resulting in simultaneous and independent readings of all 384 wells. Images were collected at each temperature, and the sum of the pixel intensity in a given area of the assay plate was recorded versus temperature. Reference wells contained RORγt without compounds, and the assay conditions were as follows: • 0.065 mg/mL RORγt • 60 μM 1,8-ANS • 100 mM Hepes, pH 7.0 • 10 mM NaCl • 2.5 mM GSH • 0.002% Tween-20
Project compounds were arranged in a pre-dosed mother plate (Greiner Bio-one) wherein compounds are serially diluted in 100% DMSO by 1:2 from a high concentration of 10 mM over 12 columns within a series (column 12 is a reference well containing DMSO, no compound). The compounds were robotically dispensed directly into assay plates (×=46 nL) using a Hummingbird capillary liquid handling instrument (Digilab). Following compound dispense, protein and dye in buffer was added to achieve the final assay volume of 3 μL, followed by 1 μL of silicone oil.
For orientation: DSF heats the sample and reads unfolding from a dye or from intrinsic fluorescence.

The mark [2] stands for this setting: Conditions B or C, read-out: RORγt (FL) Reporter Assay B or C, IC50.
The mark [3] stands for this setting: compared to Comparator Example 1.
Where [4] appears, read: compared to Comparator Example 2.
[5] abbreviates: read-out: ThermoFluor® Assay, Kd.
Where [6] appears, read: read-out: RORγt (FL) Reporter Assay B or C, IC50.

Chain of human RORγt ligand binding domain (RORγt LBD) (P51449 other isoform, or with tags, fused parts or gaps): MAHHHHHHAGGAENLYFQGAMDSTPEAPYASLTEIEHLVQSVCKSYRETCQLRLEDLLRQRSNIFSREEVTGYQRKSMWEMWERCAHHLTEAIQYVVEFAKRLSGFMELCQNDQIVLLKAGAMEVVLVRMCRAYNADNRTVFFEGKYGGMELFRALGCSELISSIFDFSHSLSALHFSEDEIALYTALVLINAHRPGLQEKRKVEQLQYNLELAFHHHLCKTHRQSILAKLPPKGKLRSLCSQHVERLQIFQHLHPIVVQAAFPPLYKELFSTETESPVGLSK
Chain of full-length human RORγt (P51449 other isoform, or with tags, fused parts or gaps): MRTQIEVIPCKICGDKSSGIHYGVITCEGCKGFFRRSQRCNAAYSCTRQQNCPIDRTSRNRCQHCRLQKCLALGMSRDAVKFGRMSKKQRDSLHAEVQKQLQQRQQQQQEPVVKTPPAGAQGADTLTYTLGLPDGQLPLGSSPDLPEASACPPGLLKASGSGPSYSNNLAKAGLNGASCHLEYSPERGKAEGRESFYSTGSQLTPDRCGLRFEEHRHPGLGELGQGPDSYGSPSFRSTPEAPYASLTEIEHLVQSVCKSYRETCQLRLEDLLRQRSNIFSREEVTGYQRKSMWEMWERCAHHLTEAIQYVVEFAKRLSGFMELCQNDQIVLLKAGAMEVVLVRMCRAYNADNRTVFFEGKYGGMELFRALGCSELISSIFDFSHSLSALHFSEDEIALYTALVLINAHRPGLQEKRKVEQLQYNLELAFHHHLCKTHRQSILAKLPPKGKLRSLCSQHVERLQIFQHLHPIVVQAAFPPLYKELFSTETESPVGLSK

On to `C[C@H]1CCCN1C(=O)c1nc(C(=O)NCC(C)(C)O)sc1-c1cnc(NC2CCCCC2)c(C#N)c1` [Example 146, (S)-5-(5-Cyano-6-(cyclohexylamino)pyridin-3-yl)-N-(2-hydroxy-2-methylpropyl)-4-(2-methylpyrrolidine-1-carbonyl)thiazole-2-carboxamide], for which the “RORγt (FL) Reporter Assay B or C, % inhibition (value marked *)” value (“RORγt … % inhibition (value marked *)” below) at full-length human RORγt (Conditions B or C) is listed as 98* %. Moreover, the concentration for half-maximal inhibition (IC50) at full-length human RORγt (setting [2]) was 0.83 µM; at full-length human RORγt (HEK293T cells, read-out: RORγt (FL) Reporter Assay B or C, IC50), 0.83 µM. Further, the results for the “fold improvement in RORγt reporter assay activity” value on full-length human RORγt (setting [3]) and at full-length human RORγt (setting [4]) were 7.2 fold and 3.6 fold, respectively. Moreover, the “fold improvement in RORγt Thermofluor® binding assay activity” value was found to be 14 fold in assay [1] (setting [3]) and 27 fold in assay [1] (setting [4]). Further, the Kd in assay [1] (setting [5]) was found to be 0.21 µM.
For `CC[C@@H](Nc1cc(C(F)(F)F)c(-c2sc(C(=O)NCC(C)(C)O)nc2C(=O)N2C3CCC2CC3)cn1)C1CC1` (stereo in doubt) [Example 131], at full-length human RORγt (Conditions B or C), the “RORγt … % inhibition (value marked *)” value was 107* %. On full-length human RORγt (RORγt (FL) Reporter Assay B or C, IC50 (μM), Conditions B or C), this molecule returned an IC50 of 0.03 µM. Further, the Kd in assay [1] (ThermoFluor® Assay, Kd (μM)) was determined as 0.0014 µM.
As for `C[C@H]1CCCCN1C(=O)c1nc(C(=O)NCC(C)(C)O)sc1-c1cnc(N[C@H]2CCCCC2(F)F)cc1C(F)(F)F` (relative stereo) [Example 32, 5-(6-(((S*)-2,2-Difluorocyclohexyl)amino)-4-(trifluoromethyl)pyridin-3-yl)-N-(2-hydroxy-2-methylpropyl)-4-((S)-2-methylpiperidine-1-carbonyl)thiazole-2-carboxamide], on full-length human RORγt (setting [2]), the IC50 is 0.0022 µM. The inhibition at 6 µM at full-length human RORγt (read-out: RORγt (FL) Reporter Assay B or C, % inhibition @ 6 μM, Conditions B or C, @ 6 μM) is 109%. Further, the Kd in assay [1] (setting [5]) amounted to 0.00026 µM.
With `C[C@H]1CCCN1C(=O)c1nc(C(=O)NC2CS(=O)(=O)C2)sc1-c1cnc(NC(C)(C)C)cc1C(F)(F)F` [Example 260, 5-[6-(tert-Butylamino)-4-(trifluoromethyl)-3-pyridyl]-N-(1,1-dioxothietan-3-yl)-4-[(2S)-2-methylpyrrolidine-1-carbonyl]thiazole-2-carboxamide], the inhibition at 3 µM on full-length human RORγt was determined as 112%. At full-length human RORγt (setting [6]), the IC50 worked out at 0.014 µM. Moreover, the Kd in assay [1] (setting [5]) came to 0.0007 µM.
For `C[C@H](Nc1cc(C(F)F)c(-c2sc(C(=O)NC3CN(S(C)(=O)=O)C3)nc2C(=O)N2CCC[C@@H]2C)cn1)C(F)(F)F` [Example 409, 5-[4-(Difluoromethyl)-6-[[(1S)-2,2,2-trifluoro-1-methyl-ethyl]amino]-3-pyridyl]-4-[(2S)-2-methylpyrrolidine-1-carbonyl]-N-(1-methylsulfonylazetidin-3-yl)thiazole-2-carboxamide], the inhibition at 3 µM at full-length human RORγt was 103%. For the same molecule, the IC50 on full-length human RORγt (setting [6]) amounted to 0.036 µM. Moreover, the Kd in assay [1] (setting [5]) is 0.0063 µM.
Consider `C[C@H](Nc1cc(C(F)F)c(-c2sc(C(=O)N[C@H](C)C(C)(C)O)nc2C(=O)N2CCC[C@@H]2C)cn1)C(F)(F)F` [Example 200, 5-(4-(Difluoromethyl)-6-(((S)-1,1,1-trifluoropropan-2-yl)amino)pyridine-3-yl)-N—((R)-3-hydroxy-3-methylburan-2-yl)-4-((S)-2-methylpyrrolidine-1-carbonyl)thiazole-2-carboxamide], for which the “RORγt … % inhibition (value marked *)” value on full-length human RORγt (Conditions B or C) was 104* %. In addition, the IC50 at full-length human RORγt (setting [2]) stood at 0.2 µM. Further, the Kd in assay [1] (setting [5]) is 0.012 µM.
As to `C[C@@H](Nc1cc(C(F)F)c(-c2sc(C(=O)NCC(C)(C)O)nc2C(=O)N2CCC[C@@H]2C)cn1)C1CC1` [Example 50, 5-(6-(((R)-1-Cyclopropylethyl)amino)-4-(difluoromethyl)pyridin-3-yl)-N-(2-hydroxy-2-methylpropyl)-4-((S)-2-methylpyrrolidine-1-carbonyl)thiazole-2-carboxamide], the “RORγt … % inhibition (value marked *)” value on full-length human RORγt (Conditions B or C) was 100* %. Moreover, the IC50 on full-length human RORγt (setting [2]) came out at 0.058 µM. In addition, the Kd in assay [1] (setting [5]) came out at 0.071 µM.
